Test system: 966289-007-R4-J1-PDC complex spheroid viability
Experiment: Anticancer human tumor 966289-007-R4-J1-PDC patient-derived pancreatic adenocarcinoma cell line growth inhibition [GQUAD]
Conditions: for IC50: curve of first compound; for viability, T/C: stronger effect = lower value
Method in brief: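 Tumor cells were grown as complex spheroids with HUVEC endothelial cells and mesenchymal stem cells as stroma. G-quadruplex stabilizers were combined with targeted agents over half-log dilutions from near the clinical Cmax, or from 10 microM.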

[1] = second compound 0.0316 µM, first compound 0.0316 µM
[2] = second compound 0.0316 µM, first compound 0.316 µM
[3] = second compound 0.1 µM, first compound 0.0316 µM
[4] = second compound 0.1 µM, first compound 0.316 µM
[5] = second compound 0.316 µM, first compound 0.0316 µM
[6] = second compound 0.316 µM, first compound 0.316 µM
[7] = second compound 1 µM, first compound 0.0316 µM
[8] = second compound 1 µM, first compound 0.316 µM
[9] = second compound 3.16 µM, first compound 0.0316 µM
[10] = second compound 3.16 µM, first compound 0.316 µM
[11] = second compound 10 µM, first compound 0.0316 µM
[12] = second compound 10 µM, first compound 0.316 µM
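Also: spheroids exposed to the agents for seven days before readout.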
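For viability, T/C in this document: percent viability relative to DMSO vehicle control wells taken as 100%.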

How did the IC50 (second compound 0.0316 µM) turn out when `Cc1[nH]c2ccccc2c1CCNCc1ccc(/C=C/C(=O)NO)cc1` + Cc1cnc(CNC(=O)c2c(=O)c3ccc(N4CCCN(C)CC4)nc3n3c2sc2ccccc23)cn1 was run?
The IC50 was 46.9 nM.

And the IC50 (second compound 0.1 µM)?
The IC50 was < 0.999 nM.

And the IC50 (second compound 0.316 µM)?
Its IC50 is < 0.999 nM.

And the IC50 (second compound 1 µM)?
The IC50 was < 0.999 nM.

What about the IC50 (second compound 3.16 µM) of the same compound?
The IC50 was < 0.999 nM.

And the IC50 (second compound 10 µM)?
The IC50 was < 0.999 nM.

And the viability, T/C (second compound 0.0316 µM, first compound 0.000999 µM)?
Its viability, T/C is 120%.

And the viability, T/C (second compound 0.0316 µM, first compound 0.00316 µM)?
The viability, T/C was 109%.

What about the viability, T/C (second compound 0.0316 µM, first compound 0.00999 µM) of the same compound?
Its viability, T/C is 110%.

What about the viability, T/C [1] of the same compound?
The viability, T/C was 72%.

And the viability, T/C (second compound 0.0316 µM, first compound 0.0999 µM)?
The viability, T/C was 7.63%.

What about the viability, T/C [2] of the same compound?
The viability, T/C was 2.65%.

And the viability, T/C (second compound 0.1 µM, first compound 0.000999 µM)?
Its viability, T/C is 36.1%.

And the viability, T/C (second compound 0.1 µM, first compound 0.00316 µM)?
The viability, T/C was 41.1%.

What about the viability, T/C (second compound 0.1 µM, first compound 0.00999 µM) of the same compound?
The viability, T/C was 39.4%.

And the viability, T/C [3]?
The viability, T/C was 20.3%.

What about the viability, T/C (second compound 0.1 µM, first compound 0.0999 µM) of the same compound?
The viability, T/C was 5.43%.

And the viability, T/C [4]?
Its viability, T/C is 2.01%.

And the viability, T/C (second compound 0.316 µM, first compound 0.000999 µM)?
The viability, T/C was 10.3%.

What about the viability, T/C (second compound 0.316 µM, first compound 0.00316 µM) of the same compound?
The viability, T/C was 10.7%.

And the viability, T/C (second compound 0.316 µM, first compound 0.00999 µM)?
The viability, T/C was 9.3%.

And the viability, T/C [5]?
Its viability, T/C is 5.04%.

And the viability, T/C (second compound 0.316 µM, first compound 0.0999 µM)?
The viability, T/C was 2.95%.

And the viability, T/C [6]?
The viability, T/C was 1.25%.

And the viability, T/C (second compound 1 µM, first compound 0.000999 µM)?
The viability, T/C was 7.03%.

And the viability, T/C (second compound 1 µM, first compound 0.00316 µM)?
The viability, T/C was 5.38%.

What about the viability, T/C (second compound 1 µM, first compound 0.00999 µM) of the same compound?
The viability, T/C was 5.15%.

What about the viability, T/C [7] of the same compound?
Its viability, T/C is 3.16%.

And the viability, T/C (second compound 1 µM, first compound 0.0999 µM)?
The viability, T/C was 1.45%.

What about the viability, T/C [8] of the same compound?
The viability, T/C was 0.33%.

And the viability, T/C (second compound 3.16 µM, first compound 0.000999 µM)?
Its viability, T/C is 3.98%.

And the viability, T/C (second compound 3.16 µM, first compound 0.00316 µM)?
The viability, T/C was 4.39%.

What about the viability, T/C (second compound 3.16 µM, first compound 0.00999 µM) of the same compound?
Its viability, T/C is 3.78%.

What about the viability, T/C [9] of the same compound?
Its viability, T/C is 0.2%.

And the viability, T/C (second compound 3.16 µM, first compound 0.0999 µM)?
The viability, T/C was 0.08%.

And the viability, T/C [10]?
The viability, T/C was 0.8%.

And the viability, T/C (second compound 10 µM, first compound 0.000999 µM)?
Its viability, T/C is 0.11%.

And the viability, T/C (second compound 10 µM, first compound 0.00316 µM)?
Its viability, T/C is 0.57%.

And the viability, T/C (second compound 10 µM, first compound 0.00999 µM)?
Its viability, T/C is 0.17%.

What about the viability, T/C [11] of the same compound?
Its viability, T/C is 0.39%.

And the viability, T/C (second compound 10 µM, first compound 0.0999 µM)?
Its viability, T/C is 0.16%.

What about the viability, T/C [12] of the same compound?
The viability, T/C was 0.17%.

For `O=C(NO)c1cnc(N2CCN(S(=O)(=O)c3ccc4ccccc4c3)CC2)nc1` + Cc1cnc(CNC(=O)c2c(=O)c3ccc(N4CCCN(C)CC4)nc3n3c2sc2ccccc23)cn1, which IC50 (second compound 0.0316 µM) is on record?
Its IC50 is 209 nM.

What about the IC50 (second compound 0.1 µM) of the same compound?
The IC50 was < 31.6 nM.

And the IC50 (second compound 0.316 µM)?
The IC50 was < 31.6 nM.

And the IC50 (second compound 1 µM)?
The IC50 was < 31.6 nM.

And the IC50 (second compound 3.16 µM)?
The IC50 was < 31.6 nM.

What about the IC50 (second compound 10 µM) of the same compound?
The IC50 was < 31.6 nM.

What about the viability, T/C [1] of the same compound?
The viability, T/C was 96.4%.

What about the viability, T/C (second compound 0.0316 µM, first compound 0.1 µM) of the same compound?
The viability, T/C was 87.3%.

What about the viability, T/C [2] of the same compound?
The viability, T/C was 28.8%.

What about the viability, T/C (second compound 0.0316 µM, first compound 1 µM) of the same compound?
The viability, T/C was 8.77%.

What about the viability, T/C (second compound 0.0316 µM, first compound 3.16 µM) of the same compound?
The viability, T/C was 2.84%.

And the viability, T/C (second compound 0.0316 µM, first compound 10 µM)?
Its viability, T/C is 0.33%.

What about the viability, T/C [3] of the same compound?
The viability, T/C was 31.3%.

And the viability, T/C (second compound 0.1 µM, first compound 0.1 µM)?
Its viability, T/C is 31.9%.

And the viability, T/C [4]?
The viability, T/C was 10.8%.

And the viability, T/C (second compound 0.1 µM, first compound 1 µM)?
The viability, T/C was 4.55%.

And the viability, T/C (second compound 0.1 µM, first compound 3.16 µM)?
The viability, T/C was 2.02%.

What about the viability, T/C (second compound 0.1 µM, first compound 10 µM) of the same compound?
Its viability, T/C is 0.31%.

What about the viability, T/C [5] of the same compound?
The viability, T/C was 7.24%.

What about the viability, T/C (second compound 0.316 µM, first compound 0.1 µM) of the same compound?
Its viability, T/C is 5.47%.

What about the viability, T/C [6] of the same compound?
The viability, T/C was 3.67%.

And the viability, T/C (second compound 0.316 µM, first compound 1 µM)?
The viability, T/C was 2.76%.

And the viability, T/C (second compound 0.316 µM, first compound 3.16 µM)?
The viability, T/C was 1.03%.

And the viability, T/C (second compound 0.316 µM, first compound 10 µM)?
Its viability, T/C is 0.05%.

What about the viability, T/C [7] of the same compound?
Its viability, T/C is 4.18%.

And the viability, T/C (second compound 1 µM, first compound 0.1 µM)?
Its viability, T/C is 2.98%.

And the viability, T/C [8]?
Its viability, T/C is 3.68%.

What about the viability, T/C (second compound 1 µM, first compound 1 µM) of the same compound?
The viability, T/C was 0.86%.

And the viability, T/C (second compound 1 µM, first compound 3.16 µM)?
Its viability, T/C is 0.32%.

And the viability, T/C (second compound 1 µM, first compound 10 µM)?
The viability, T/C was 0.05%.

And the viability, T/C [9]?
Its viability, T/C is 1.88%.

What about the viability, T/C (second compound 3.16 µM, first compound 0.1 µM) of the same compound?
Its viability, T/C is 2.14%.

What about the viability, T/C [10] of the same compound?
Its viability, T/C is 0.08%.

What about the viability, T/C (second compound 3.16 µM, first compound 1 µM) of the same compound?
Its viability, T/C is 0.05%.

What about the viability, T/C (second compound 3.16 µM, first compound 3.16 µM) of the same compound?
The viability, T/C was 0.06%.

What about the viability, T/C (second compound 3.16 µM, first compound 10 µM) of the same compound?
Its viability, T/C is 0.1%.

What about the viability, T/C [11] of the same compound?
The viability, T/C was 0.03%.

And the viability, T/C (second compound 10 µM, first compound 0.1 µM)?
The viability, T/C was 0.09%.

And the viability, T/C [12]?
Its viability, T/C is 0.1%.

And the viability, T/C (second compound 10 µM, first compound 1 µM)?
Its viability, T/C is 0.09%.

What about the viability, T/C (second compound 10 µM, first compound 3.16 µM) of the same compound?
The viability, T/C was 0.53%.

What about the viability, T/C (second compound 10 µM, first compound 10 µM) of the same compound?
Its viability, T/C is 0.23%.

Source: PubChem BioAssay AID2060488 (Molecular Pharmacology Branch, DTP, NCI, 2025)
